In patent publication US20200031866A1, “PEPTIDE INHIBITORS OF SODIUM CHANNELS” (SPYRYX BIOSCIENCES, INC., priority 2016, published 2020):
Square brackets hold non-standard residues; d marks the D form. Peptide text beside a SMILES is read from it.

Experiments:
[1] = test system: tracheal mucus velocity (TMV) in sheep; test: CFTRinh-172-induced slowing of tracheal mucus velocity (TMV) in sheep; format: in vivo; conditions: for average TMV response between 5-12h: mean±se, 3 sheep/group, saline 50±0.5%
Method: All procedures used were approved by the Mount Sinai Medical Center Animal Research Committee. The sheep were conscious and intubated for these studies. All instrumentation was performed under local anesthesia. After topical anesthesia of the nasal passages with 2% lidocaine solution, the sheep were nasally intubated, with an endotracheal tube […] in diameter (Mallinckrodt Med Inc., St. Louis, Mo.) shortened by 6 cm. The cuff of the tube was placed just below the vocal cords (verified by fluoroscopy) to allow for maximal exposure of the tracheal surface area. The inspired air was warmed and humidified using a Bennett Humidifier (Puritan-Bennett, Lenexa, Kans.). To minimize possible impairment of TMV caused by the inflated cuff, the endotracheal tube cuff remained deflated throughout the study except for the period of drug delivery.
TMV was measured in vivo by a roentgenographic technique. Between 8 and 10 radiopaque Teflon/bismuth trioxide disks, 1-mm diameter, 0.8-mm thick and 1.5-2 mg in weight, were insufflated onto the trachea. A modified suction catheter connected to a source of continuous compressed air at a flow of 3-4 L/min was used to introduce the particles via the endotracheal tube. The catheter remained within the endotracheal tube only during particle delivery, so that no contact with the tracheal surface is made. The cephalad-axial velocities of the individual disks were recorded on videotape from a portable image intensifier unit. Individual disk velocities were calculated by measuring the distance traveled by each disk during a 1-min observation period. For each run, the mean value of all individual disk velocities was calculated. A collar containing radiopaque reference markers of known length was worn by the sheep, and used as a standard to correct for magnification effects inherent in the fluoroscopy unit.
Aerosols were generated using an Airlife medication nebulizer. To control aerosol delivery a dosimetry system activated by a piston respirator (Harvard Apparatus Respiratory Pump, Holliston, Mass.) was used. The nebulizer was connected to a T-piece with one end attached to the respiratory pump and the other to the animal's tracheal tube. Nebulized aerosols were delivered directly into the trachea only during inspiration at a frequency of 20 breaths/min and at a tidal volume of 500 mL.
Ten (10) mg of CFTRinh-172 was dissolved in 0.3 mL of DMSO. The solution was vortexed and then 2.7 mL of ethanol was added bringing the final nebulized solution of CFTRinh to 10 mg/3 mL. […]
After a 10 minute period on the humidifier, a baseline TMV was obtained Immediately following the baseline, the sheep were challenged with an aerosol of 10 mg of CFTRinh. TMV was measured hourly for 4h. […] TMV was then measured from 5-12h following treatment. […]

[2] = molecular target: T1, alpha-ENaC (Homo sapiens, UniProt P37088); test: Internalization of alpha-ENaC in HEK293T cells, GFP-tagged alpha-ENaC co-expressed only with gamma ENaC and no beta-ENaC; format: cell-based; conditions: FIG. 6
T1 construct: expressed in transfected cells; host or cells: HEK293T
T1 sequence (P37088 1-669): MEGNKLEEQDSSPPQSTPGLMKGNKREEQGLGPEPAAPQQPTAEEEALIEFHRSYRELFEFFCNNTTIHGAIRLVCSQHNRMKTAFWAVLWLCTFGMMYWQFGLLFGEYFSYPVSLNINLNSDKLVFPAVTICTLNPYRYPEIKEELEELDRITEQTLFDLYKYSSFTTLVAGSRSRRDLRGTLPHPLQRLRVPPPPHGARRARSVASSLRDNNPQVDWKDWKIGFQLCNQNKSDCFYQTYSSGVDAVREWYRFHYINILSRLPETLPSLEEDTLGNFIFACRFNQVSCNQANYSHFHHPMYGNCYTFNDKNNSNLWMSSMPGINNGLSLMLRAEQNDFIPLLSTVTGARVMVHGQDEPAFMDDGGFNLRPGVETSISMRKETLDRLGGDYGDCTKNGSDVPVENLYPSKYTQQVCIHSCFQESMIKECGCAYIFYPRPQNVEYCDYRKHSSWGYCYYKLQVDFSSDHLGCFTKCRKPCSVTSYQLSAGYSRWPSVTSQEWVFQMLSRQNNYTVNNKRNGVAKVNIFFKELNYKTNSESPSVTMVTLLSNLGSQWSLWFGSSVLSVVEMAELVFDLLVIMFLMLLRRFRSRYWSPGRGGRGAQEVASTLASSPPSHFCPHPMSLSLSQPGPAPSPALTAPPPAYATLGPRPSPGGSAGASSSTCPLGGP
Method: […] Am J Physiol Lung Cell Mol Physiol. 2013 December; 305(12):L990-L1001. doi: 10.1152/ajplung.00103.2013. Epub 2013 October; Garland et al. Proc Natl Acad Sci USA. 2013 Oct. 1; 110(40):15973-8. doi: 10.1073/pnas.1311999110. Epub 2013 Sep. 16.; Tan et al. J Physiol. 2014 Dec. 1; 592(Pt 23):5251-68). Twenty-four hours later, peptide or vehicle control were added at t=0 and fluorescence was read using a Tecan M1000 plate reader 3 h later. Fluorescence was read at 488 nm (excitation)/510 nm (emission).

CC[C@H](C)[C@H](NC(=O)[C@@H]1CCCN1C(=O)[C@H](CC(C)C)NC(=O)[C@@H](C)NC(=O)[C@@H](C)N)C(=O)N1CCC[C@H]1C(=O)N[C@@H](CC(C)C)C(=O)N[C@@H](CC(=O)O)C(=O)N[C@@H](CCC(N)=O)C(=O)N[C@H](C(=O)N[C@H](C)C(=O)N[C@H](C)C(N)=O)[C@@H](C)O [SEQ ID NO:128, aaLPIPLDQTaa] (H-[dA][dA]LPIPLDQT[dA][dA]-NH2)
average TMV response between 5-12h ([1]; 1 mg/kg nebulized 4 h after 10 mg CFTRinh): 73.7±0.7% | average TMV response between 5-12h ([1]; 2 mg/kg nebulized 4 h after 10 mg CFTRinh): 88.4±0.6% | average TMV response between 5-12h ([1]; 4 mg/kg nebulized 4 h after 10 mg CFTRinh): 103.0±0.6% | reversal of CFTRinh-induced slowing of TMV ([1]; reversal dose dependent, FIGS. 8A-8C): can reverse CFTRinh-induced slowing of TMV | effect on alpha-ENaC [2]: no effect
